# Results reported in publication PMC5415745, “Drug-transporter mediated interactions between anthelminthic and antiretroviral drugs across the Caco-2 cell monolayers” (BMC Pharmacology & Toxicology, 2017).
# Where “and” joins values, the source holds several entries; their conditions need not be identical. Identical values can stand only once.
# How the values were obtained:
# [1] = Bidirectional (AP→BL, BL→AP) drug transport across Caco-2 cell monolayers in transwells: cumulative transport, Papp, efflux ratio; HPLC or radiolabeled assay; details: human
# [2] = system: Caco-2 cell monolayers; assay: as above; details: for Effect on the transport of IVM / Effect on the transport of PZQ: labelled drug is the interacting drug
# [3] = cited from earlier work
# [4] = Caco-2, Papp AP → BL, mean (n=3) after 60 min, drug A alone, or label 'A + B' = transport of A in presence of interacting drug B, concentrations per Table 1
# [5] = Caco-2, Papp BL → AP, mean (n=3) after 60 min, drug A alone, or label 'A + B' = transport of A in presence of interacting drug B, concentrations per Table 1
# [6] = [3H] LPV alone, 60 min, individual experiments 1-3
# [7] = [3H] LPV alone, 60 min, mean, n=3
# [8] = [3H] LPV alone, 120 min, individual experiments 1-3
# [9] = [3H] LPV alone, 120 min, mean, n=3
# [10] = [3H] LPV alone, 180 min, individual experiments 1-3
# [11] = [3H] LPV alone, 180 min, mean, n=3
# [12] = [3H] LPV alone, 240 min, individual experiments 1-3
# [13] = [3H] LPV alone, 240 min, mean, n=3
# [14] = [3H] LPV alone, after 60 min, samples 1-3
# [15] = [3H] NVP alone, 60 min, individual experiments 1-3
# [16] = [3H] NVP alone, 60 min, mean, n=3
# [17] = [3H] NVP alone, 120 min, individual experiments 1-3
# [18] = [3H] NVP alone, 120 min, mean, n=3
# [19] = [3H] NVP alone, 180 min, individual experiments 1-3
# [20] = [3H] NVP alone, 180 min, mean, n=3
# [21] = [3H] NVP alone, 240 min, individual experiments 1-3
# [22] = [3H] NVP alone, 240 min, mean, n=3
# [23] = [3H] NVP alone, after 60 min, samples 1-3
# [24] = SQV alone (PZQ experiment), 60 min, mean
# [25] = SQV alone (PZQ experiment), 60 min, samples 1-3
# [26] = SQV alone (PZQ experiment), 120 min, mean
# [27] = SQV alone (PZQ experiment), 120 min, samples 1-3
# [28] = SQV alone (PZQ experiment), 180 min, mean
# [29] = SQV alone (PZQ experiment), 180 min, samples 1-3
# [30] = SQV alone (PZQ experiment), 240 min, mean
# [31] = SQV alone (PZQ experiment), 240 min, samples 1-3
# [32] = SQV alone (PZQ experiment), after 60min, mean
# [33] = SQV alone, 60 min, individual experiments 1-3
# [34] = SQV alone, 180 min, individual experiments 1-3
# [35] = SQV alone, 240 min, individual experiments 1-3
# [36] = SQV alone, after 60 min, samples 1-3
compound,measurement,setting,value
"Cc1cccc(C)c1OCC(=O)N[C@@H](Cc1ccccc1)[C@@H](O)C[C@H](Cc1ccccc1)NC(=O)[C@H](C(C)C)N1CCCNC1=O [LPV, lopinavir]",Papp A→B at 60 min,[1]; [4],4.8 ×10⁻⁶ cm/s
same,Papp B→A at 60 min,[1]; [5],32.1 ×10⁻⁶ cm/s
same,Papp A→B at 60 min,"[1]; Caco-2, PappAB Papp, [3H] LPV alone, after 60 min, samples 1-3",5.95 ×10⁻⁶ cm/s
same,Papp B→A at 60 min,"[1]; Caco-2, PappBA Papp, [3H] LPV alone, after 60 min, samples 1-3",36.3 ×10⁻⁶ cm/s
same,Apical to basal transport,[2]; [6],0.92 pmol and 0.73 pmol and 0.68 pmol
same,Basal to apical transport,[2]; [6],4.42 pmol and 4.44 pmol and 5.33 pmol
same,Apical to basal transport Mean,[2]; [7],0.78 pmol
same,Basal to apical transport Mean,[2]; [7],4.73 pmol
same,Apical to basal transport,[2]; [8],1.24 pmol and 1.79 pmol and 1.27 pmol
same,Basal to apical transport,[2]; [8],7.38 pmol and 6.91 pmol and 8.43 pmol
same,Apical to basal transport Mean,[2]; [9],1.43 pmol
same,Basal to apical transport Mean,[2]; [9],7.57 pmol
same,Apical to basal transport,[2]; [10],1.93 pmol and 2.34 pmol and 1.52 pmol
same,Basal to apical transport,[2]; [10],9.01 pmol and 8.46 pmol and 10.62 pmol
same,Apical to basal transport Mean,[2]; [11],1.93 pmol
same,Basal to apical transport Mean,[2]; [11],9.36 pmol
same,Apical to basal transport,[2]; [12],2.15 pmol and 2.71 pmol and 1.78 pmol
same,Basal to apical transport,[2]; [12],11.97 pmol and 11.41 pmol and 12.04 pmol
same,Apical to basal transport Mean,[2]; [13],2.21 pmol
same,Basal to apical transport Mean,[2]; [13],11.81 pmol
same,PappBA Mean,"[2]; [3H] LPV alone, after 60 min, mean, n=3",32.09 10^9 cm/s
same,Apical to basal transport Conc. Apical,[2]; [14],18.43 pmol and 19.89 pmol
same,Basal to apical transport Conc. Basal,[2]; [14],14.48 pmol and 17.27 pmol and 21.60 pmol
same,Effect on the transport of IVM,[2],twofold decrease in the efflux ratio
"Cc1ccnc2c1NC(=O)c1cccnc1N2C1CC1 [NVP, nevirapine]",efflux ratio at 60 min,"[1]; Caco-2, Efflux ratio ER, [3H] NVP alone, after 60 min, samples 1-3",1.03
same,Papp A→B at 60 min,[1]; [4],42.7 ×10⁻⁶ cm/s
same,Papp B→A at 60 min,[1]; [5],39.5 ×10⁻⁶ cm/s
same,Papp A→B at 60 min,"[1]; Caco-2, PappAB Papp, [3H] NVP alone, after 60 min, samples 1-3",52.9 ×10⁻⁶ cm/s
same,Papp B→A at 60 min,"[1]; Caco-2, PappBA Papp, [3H] NVP alone, after 60 min, samples 1-3",54.7 ×10⁻⁶ cm/s
same,Apical to basal transport,[2]; [15],78.8 pmol and 80.8 pmol and 79.4 pmol
same,Basal to apical transport,[2]; [15],59.7 pmol and 67.9 pmol and 77.2 pmol
same,Apical to basal transport Mean,[2]; [16],79.68 pmol
same,Basal to apical transport Mean,[2]; [16],68.27 pmol
same,Apical to basal transport,[2]; [17],111.5 pmol and 123.2 pmol and 109.9 pmol
same,Basal to apical transport,[2]; [17],81.9 pmol and 91.5 pmol and 105.1 pmol
same,Apical to basal transport Mean,[2]; [18],114.88 pmol
same,Basal to apical transport Mean,[2]; [18],92.84 pmol
same,Apical to basal transport,[2]; [19],116.3 pmol and 120.3 pmol and 122.0 pmol
same,Basal to apical transport,[2]; [19],92.9 pmol and 107.5 pmol and 118.9 pmol
same,Apical to basal transport Mean,[2]; [20],119.53 pmol
same,Basal to apical transport Mean,[2]; [20],106.41 pmol
same,Apical to basal transport,[2]; [21],123.9 pmol and 122.5 pmol and 120.2 pmol
same,Basal to apical transport,[2]; [21],98.8 pmol and 112.2 pmol and 132.2 pmol
same,Apical to basal transport Mean,[2]; [22],122.19 pmol
same,Basal to apical transport Mean,[2]; [22],114.39 pmol
same,Apical to basal transport Conc. Apical,[2]; [23],177.1 pmol and 196.6 pmol and 189.3 pmol
same,Basal to apical transport Conc. Basal,[2]; [23],129.9 pmol and 207.3 pmol and 202.9 pmol
same,Efflux ratio ER,[2]; [23],0.80
same,PappAB Papp,[2]; [23],40.3 ×10⁻⁶ cm/s and 34.9 ×10⁻⁶ cm/s
same,PappBA Papp,[2]; [23],32.1 ×10⁻⁶ cm/s and 31.7 ×10⁻⁶ cm/s
same,Effect on the transport of IVM,[2],increased
same,Effect on the transport of PZQ,[2],did not affect
"CC(C)(C)NC(=O)[C@@H]1C[C@@H]2CCCC[C@@H]2CN1C[C@@H](O)[C@H](Cc1ccccc1)NC(=O)[C@H](CC(N)=O)NC(=O)c1ccc2ccccc2n1 [SQV, saquinavir]",Log Kow,[3],2.5
same,Papp A→B at 60 min,[1]; [4],6.9 ×10⁻⁶ cm/s
same,Papp B→A at 60 min,[1]; [5],21.1 ×10⁻⁶ cm/s
same,Papp A→B at 60 min,"[1]; Caco-2, PappAB Papp, SQV alone, after 60 min, samples 1-3",7.01 ×10⁻⁶ cm/s
same,Papp B→A at 60 min,"[1]; Caco-2, PappBA Papp, SQV alone, after 60 min, samples 1-3",25.1 ×10⁻⁶ cm/s
same,Apical to basal transport Mean,[2]; [24],3.18 pmol
same,Basal to apical transport Mean,[2]; [24],6.29 pmol
same,Apical to basal transport,[2]; [25],3.93 pmol and 2.52 pmol and 3.10 pmol
same,Basal to apical transport,[2]; [25],5.98 pmol and 5.60 pmol and 7.29 pmol
same,Apical to basal transport Mean,[2]; [26],4.32 pmol
same,Basal to apical transport Mean,[2]; [26],11.52 pmol
same,Apical to basal transport,[2]; [27],4.59 pmol and 4.09 pmol and 4.29 pmol
same,Basal to apical transport,[2]; [27],10.77 pmol and 11.26 pmol and 12.52 pmol
same,Apical to basal transport Mean,[2]; [28],5.73 pmol
same,Basal to apical transport Mean,[2]; [28],16.09 pmol
same,Apical to basal transport,[2]; [29],5.76 pmol and 5.30 pmol and 6.14 pmol
same,Basal to apical transport,[2]; [29],16.14 pmol and 16.78 pmol and 15.35 pmol
same,Apical to basal transport Mean,[2]; [30],6.40 pmol
same,Basal to apical transport Mean,[2]; [30],20.56 pmol
same,Apical to basal transport,[2]; [31],6.59 pmol and 5.67 pmol and 6.93 pmol
same,Basal to apical transport,[2]; [31],18.19 pmol and 23.27 pmol
same,PappAB Mean,[2]; [32],6.56 ×10⁻⁶ cm/s
same,PappBA Mean,[2]; [32],10.8 ×10⁻⁶ cm/s
same,Apical to basal transport,[2]; [33],2.74 pmol and 2.54 pmol and 3.32 pmol
same,Basal to apical transport,[2]; [33],8.18 pmol and 6.66 pmol and 9.42 pmol
same,Apical to basal transport Mean,"[2]; SQV alone, 60 min, mean, n=3",2.87 pmol
same,Basal to apical transport Mean,"[2]; SQV alone, 60 min, mean, n=3",8.09 pmol
same,Apical to basal transport Mean,"[2]; SQV alone, 120 min, mean, n=3",5.52 pmol
same,Basal to apical transport Mean,"[2]; SQV alone, 120 min, mean, n=3",14.27 pmol
same,Apical to basal transport,[2]; [34],7.42 pmol and 7.24 pmol and 8.40 pmol
same,Basal to apical transport,[2]; [34],18.6 pmol and 17.14 pmol and 18.78 pmol
same,Apical to basal transport Mean,"[2]; SQV alone, 180 min, mean, n=3",7.69 pmol
same,Basal to apical transport Mean,"[2]; SQV alone, 180 min, mean, n=3",18.17 pmol
same,Apical to basal transport,[2]; [35],9.18 pmol and 8.8 pmol
same,Basal to apical transport,[2]; [35],21.42 pmol and 26.66 pmol
same,Apical to basal transport Mean,"[2]; SQV alone, 240 min, mean, n=3",9.74 pmol
same,Basal to apical transport Mean,"[2]; SQV alone, 240 min, mean, n=3",23.51 pmol
same,Apical to basal transport Conc. Apical,[2]; [36],23.25 pmol and 22.93 pmol
same,Basal to apical transport Conc. Basal,[2]; [36],19.35 pmol and 21.54 pmol and 28.21 pmol
same,PappAB Papp,[2]; [36],6.59 ×10⁻⁶ cm/s and 7.13 ×10⁻⁶ cm/s
same,PappBA Papp,[2]; [36],18.4 ×10⁻⁶ cm/s and 19.9 ×10⁻⁶ cm/s
same,Effect on the transport of PZQ,[2],did not affect
same,Papp AP → BL,"[2]; mean (n=3) after 60 min, drug A alone, or label 'A + B' = transport of A in presence of interacting drug B, concentrations per Table 1",6.6 ×10⁻⁶ cm/s
